According to patent publication US9095561B2, “Methods for affecting homology-directed DNA double stranded break repair” (University of South Carolina, priority 2010, dated 2015):
Where a SMILES comes first, the peptide text is derived from it. The star is where a group is joined. Cbz = O=C(OCc1ccccc1)*

Experiments:
HA-RAD51D = HA-RAD51D protein levels after CHX with or without proteasome inhibitor MG132; type: cell-based, mouse; parameters: HA-RAD51D protein levels elevated: dose or concentration left out as unconfirmed
Protocol: FIG. 18 illustrates analysis of MEFs that were treated with CHX ([…]) or CHX in combination with MG132 ([…]). Cell lysates were prepared at the 4 hour time point, and HA-RAD51D band intensity was calculated as described herein.
To determine whether decreased HA-RAD51D half-life can be attributed to proteasome degradation, HA-RAD51D protein levels were assessed following treatment with the proteasome inhibitor MG132. As anticipated, HA-RAD51D protein levels were elevated up to 42% in MG132 treated samples (FIG. 18, lanes 1-4) indicating RAD51D protein levels are in part regulated by the proteasome.

RAD51 foci = RAD51 foci formation by immunofluorescence in MEFs; type: cell-based, mouse; settings: MMC 200 ng/mL, 16 h exposure, RNF138 proficient MEFs; untreated control approximately 21 percent; p<0.01
Protocol: The presence of RAD51 foci was examined in MEFs subjected to either 200 ng/mL Mitomycin C (MMC) treatment or with no treatment. In addition, both deficient RNF138 cells and proficient RNF138 cells were examined.
For analysis of RAD51 foci formation, 10,000 cells were seeded onto glass coverslips for transfection with Rnf138 siRNA. Twenty-four hr following siRNA transfection, cells were challenged with MMC (200 ng/mL) for 16 hr. Immunofluoresence detection of RAD51 foci was carried out as is generally known I the art (see, e.g., Smiraldo et al., 2005). Cells containing five or more distinct foci were scored positive. For each condition, a minimum of 250 cells from at least three independent experiments was analyzed (n≧750).
The presence of RAD51 foci monitored by immunofluorescence is illustrated in FIGS. 12A-D. RAD51 foci indicates DNA damaged sites undergoing HR repair. MMC treatment (200 ng/mL) increased the percentage of cells containing 5 or more distinct RAD51 foci from approximately 21 percent for untreated control cells (FIG. 12B) to 51 percent (FIG. 12D) following a 16 h exposure (p<0.01). […] In addition, RAD51 foci formation was less in untreated RNF138 deficient (FIG. 12A) versus RNF138 proficient (FIG. 12B) MEFs. Although, a notable increase in RAD51 foci is still detected upon MMC treatment (FIG. 13).

Row | SMILES | HA-RAD51D protein stability following knockdown of RNF138 expression (HA-RAD51D; CHX plus MG132, 4 hour time point, RNF138 knockdown MEFs) | HA-RAD51D protein levels elevated (HA-RAD51D; CHX, 4 hour time point, MEFs) | percentage of cells containing 5 or more distinct RAD51 foci (RAD51 foci) [%]
1 | CC(C)C[C@@H](C=O)NC(=O)[C@H](CC(C)C)NC(=O)[C@H](CC(C)C)NC(=O)OCc1ccccc1 [MG132] (Cbz-Leu-Leu-Leu-aldehyde) | failed to increase | up to 42% | –
2 | CO[C@@]12[C@H](COC(N)=O)C3=C(C(=O)C(C)=C(N)C3=O)N1C[C@@H]1N[C@@H]12 [MMC, Mitomycin C] | – | – | 51
